Data taken from patent publication US20050037975A1, “Method for treatment of glutamate related disorders” (priority 1997, published 2005).
Residue numbers refer to the chain shown, from its start.

How the values were obtained:
[1] = biological target: T1, rat liver mitochondrial low Km ALDH (Rattus norvegicus, UniProt P11884); experiment: In vitro inhibition of rat liver mitochondrial low Km aldehyde dehydrogenase (isolated mitochondria); type: biochemical; details: one hour incubation
T1 construct: differential centrifugation carried out to isolate the mitochondrial faction; from tissue; host or cells: liver mitochondria of male Sprague-Dawley derived rats
T1 sequence (P11884 20-519): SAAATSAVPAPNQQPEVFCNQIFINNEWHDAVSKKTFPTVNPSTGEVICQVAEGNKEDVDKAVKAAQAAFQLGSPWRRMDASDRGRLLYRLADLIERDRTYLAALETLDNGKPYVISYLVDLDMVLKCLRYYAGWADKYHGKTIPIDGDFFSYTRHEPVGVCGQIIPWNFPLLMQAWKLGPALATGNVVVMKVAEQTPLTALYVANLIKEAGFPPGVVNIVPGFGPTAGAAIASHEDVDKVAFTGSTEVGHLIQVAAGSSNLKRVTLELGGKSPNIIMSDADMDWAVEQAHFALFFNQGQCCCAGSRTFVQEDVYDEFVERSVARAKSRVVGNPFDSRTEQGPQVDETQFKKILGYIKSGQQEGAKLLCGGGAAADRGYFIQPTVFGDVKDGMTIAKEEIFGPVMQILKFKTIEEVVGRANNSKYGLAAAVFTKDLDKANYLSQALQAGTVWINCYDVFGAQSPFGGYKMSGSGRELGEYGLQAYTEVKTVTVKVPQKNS
Protocol: To determine whether a compound of formula (I) can inhibit low Km aldehyde dehydrogenase, an amount of the compound is added to isolated mitochondria. To prepare isolated mitochondria, male Sprague-Dawley derived rats weighing 200-400 g were anesthetized with carbon dioxide and then decapitated. The livers from untreated rats were homogenized in 0.25 M sucrose and differential centrifugation carried out to isolate the mitochondrial faction. The mitochondria were solubilized with sodium deoxycholate, and mitochondrial low Km ALDH activity determined by the method of S. O. C. Tottmar et al., Biochem. J. 135, 577 (1973).
Mitochondria were isolated from the liver of untreated rats and resuspended in 0.1 M phosphate buffer (pH=7.4). Incubations contained 2 mg of mitochondrial protein, to which was added DETC-Me SO at 0.2 μM, 2.0 μM, 20 μM or 200 μM, or DDTC-Me SO at 0.5 μM, 2.5 μM, 10 μM; 25 μM, 50 μM or 100 μM. The DETC-Me SO or DDTC-Me SO was dissolved in ethanol and the incubations carried out for one hour. Control incubations contained ethanol alone.
At the end of the incubation, the mitochondria were isolated by centrifugation, resuspended in 0.25 M sucrose buffer and solubilized with deoxycholate. Low Km ALDH activity was determined by the method of S. O. C. Tottmar et. al., cited above.

[2] = biological target: T2, mouse liver low Km ALDH (Mus musculus, UniProt P47738); experiment: In vivo inhibition of mouse liver aldehyde dehydrogenase; details: mouse; 30 μmol/kg intravenous, mice
T2 construct: Liver aldehyde dehydrogenase was extracted and assayed as previously described; from tissue; host or cells: liver of treated mice
T2 sequence (P47738 20-519): T1 sequence (P11884 20-519) with Q13H, K34R, Q67R, D237G, D313N, N422D
Protocol: Reagents—DETC-MeSO was synthesized by the method of Hart and Faiman (B. W. Hart et al., Biochem. Pharmacol.), 43, 403-406 (1992). Carbamoylated glutathione, S-(N,N-diethylcarbamoyl)glutathione (DETC-GS), was prepared essentially as described by Jin et al. (L. Jin, supra). The structures and purity of DETC-MeSO and DETC-GS were confirmed by 300 MHz NMR and FAB-tandem mass spectrometry. A QE300 NMR spectrometer (General Electric, Fremont, Calif.) and Autospec-Q Tandem Hybrid mass spectrometer (Fiscons/VG Analytical Limited, Manchester, England) were employed for these analyses. Liver aldehyde dehydrogenase was extracted and assayed as previously described (B. W. Hart et al., supra). MetSOX monosodium L-glutamate, glycine, glutathione, and NMDA were purchased from Sigma Chemical Company (St. Louis, Mo.). L-[3-^3H]Glutamate (46 Ci/mmol) was obtained from Amerisham Life Science (Buckinghamshire, England).

[3] = tested on: brain glutamate receptors (synaptic membranes); experiment: [3H]glutamate binding to mouse brain synaptic membranes in vitro; details: for effect on glutamate binding to synaptic membrane preparations: in vitro, without glycine
Protocol: Binding Studies—Synaptic membranes (100 μg protein) were isolated (Y. H. Lee et al., J. Neurosci. Res. 40, 797-806 (1995)) form whole brain homogenate of male Swiss Webster mice and were incubated in 0.1 mM L-glutamate for 30 minutes at 25° C. After addition of 50 nM of [^3H]glutamate, incubation was continued for an additional 45 minutes. Reactions were terminated by centrifugation at 4° C. to separate membrane-bound from free radioactivity. […] The rate (k) and maximum percent blockage of glutamate binding (M) by DETC-MeSO (1) during the incubation time (t) was determined by fitting the equation [% inhibition]=M(1−e^−kh) to these day by use of the program Grafit (Erithicus Software Ltd.). This equation was derived for first-order inactivation by a group specific reagent that gives a partial effect. If “A” is the percent of binding activity that remains after extensive exposure (t=of the receptor to excess DETC-MeSO, then M=100−A)e^−kh+A; substituting (100−M) for “A” and [100−% inhibition] for “a” in this equation gives the one employed for purposes of data analyses. […] A second equation was employed in the analysis of binding data that defines partial, irreversible inactivation of two distinct groups of receptors [% inhibition]=M1(1−e^−k1^IT)+M2(1−e^−k1^IT), where M1 and M2 are the maximum amount of inhibition obtained for complete modification of each receptor population and k1 and k2 are the rate constants for these modifications, respectively.
Six determinations of the effect of DETC-MeSO were made at each concentration tested (1, 5, 10, 50, 100, 200, and 1000 μM) and the average value is shown with error bars for one standard deviation.

[4] = tested on: ALDH2; experiment: In vitro inactivation of aldehyde dehydrogenase; type: biochemical; details: reversible or irreversible
Protocol: To test whether the protective effect of DETC-MeSO in hyperbaric O2-induced convulsions in mice could be due to inhibition of succinic semi-aldehyde dehydrogenase (SSA DH), mechanistically related to ALDH2, the sensitivity of SSA DH to inactivation by DETC-MeSO was determined. Potentially, inhibition of SSA DH in brain could offset the build up of ammonia known to occur and produce more GABA. In vitro both ALDH2 and SSA DH are inactivated by DETC-MeSO at 47 M-1 s-1 and 300 M-1 s-1, respectively.

[5] = Carbamoylation of glutathione by DETC-MeSO under physiological conditions; details: under physiological conditions
Source text: This rate of reaction was approximate an order of magnitude faster than that of the more familiar α-haloketone functionality.

[6] = tested on: brain glutamate receptors (synaptic membranes); experiment: Glutamate binding to synaptic membranes isolated from treated mice; type: in vivo, mouse; details: 30 μmol/kg intravenous, mice
Protocol: Binding Studies—Synaptic membranes (100 μg protein) were isolated (Y. H. Lee et al., J. Neurosci. Res. 40, 797-806 (1995)) form whole brain homogenate of male Swiss Webster mice and were incubated in 0.1 mM L-glutamate for 30 minutes at 25° C. After addition of 50 nM of [^3H]glutamate, incubation was continued for an additional 45 minutes. Reactions were terminated by centrifugation at 4° C. to separate membrane-bound from free radioactivity. Nonspecific binding (radioactivity bound in the presence of 0.5 mM unlabeled glutamate) averages: 20-30% of total radioactivity bound. The rate (k) and maximum percent blockage of glutamate binding (M) by DETC-MeSO (1) during the incubation time (t) was determined by fitting the equation [% inhibition]=M(1−e^−kh) to these day by use of the program Grafit (Erithicus Software Ltd.). This equation was derived for first-order inactivation by a group specific reagent that gives a partial effect. If “A” is the percent of binding activity that remains after extensive exposure (t=of the receptor to excess DETC-MeSO, then M=100−A)e^−kh+A; substituting (100−M) for “A” and [100−% inhibition] for “a” in this equation gives the one employed for purposes of data analyses. […] A second equation was employed in the analysis of binding data that defines partial, irreversible inactivation of two distinct groups of receptors [% inhibition]=M1(1−e^−k1^IT)+M2(1−e^−k1^IT), where M1 and M2 are the maximum amount of inhibition obtained for complete modification of each receptor population and k1 and k2 are the rate constants for these modifications, respectively.
Synaptic membranes were prepared from the brains of mice injected with DETC-MeSO (5.2 mg/kg, i.p.). The ability of synaptic membrane preparations isolated from DETC-MeSO-treated mice to bind glutamate was compared with similar preparations isolated from control animals. FIG. 3(A) illustrates the results obtained from synaptic membranes prepared from brains of mice killed two hours after a single dose of DETC-MeSO, or two hours after the last injection of multiple consecutive doses (5.2 mg/kg, i.p., daily for seven days). Either single or multiple dosing with DETC-MeSO reduced the capacity of synaptic membranes to bind glutamate by approximately 50%, the maximum effect obtained in vitro (FIG. 3). Each bar represents the average of results obtained from four animals and the error bars are for one standard deviation.

[7] = biological target: T1, rat liver mitochondrial low Km ALDH; experiment: Liver aldehyde dehydrogenase determined in vivo; details: intraperitoneal (IP), liver taken eight hours later
Protocol: To determine if a compound of formula (I) can inhibit aldehyde dehydrogenase activity in vivo, doses of DETC-Me SO (1.3 mg/kg, 2.6 mg/kg, 5.2 mg/kg, 10.3 mg/kg and 20.6 mg/kg), were administered to male Sprague Dawley derived rats weighing 200-400 g. The rats were bred from a resident colony maintained in the Animal Care Unit at the University of Kansas. Rats were maintained on a 12-hour lights cycle with access to food and water ad lib until the night before an experiment, at which time food was removed. Animals were fasted for 12 hours prior to drug administration.
All experiments were carried out in the morning. Rats were treated with the doses of DETC-Me SO or DETC-Me described above, which were dissolved in polyethylene glycol 200. Eight hours later, the rats were anesthetized with carbon-dioxide and then decapitated. The liver was quickly removed and the low Km aldehyde dehydrogenase determined. Control rats were treated with […] vehicle only, and each control data point also represents an average of four rats.
The liver from drug-treated and control rats was homogenized in 0.25 M sucrose and differential centrifugation was carried out to isolate the mitochondrial fraction. The mitochondria were solubilized with sodium deoxycholate, and mitochondrial low Km and total (high and low) aldehyde dehydrogenase activity determined by the method of S. O. C. Tottmar et al., cited above.

CCN(CC)C(=S)[S+](C)[O-] (centres unmarked) [DDTC-Me SO, S-Methyl-N,N-Diethyldithiocarbamate Sulfoxide]
IC50 ([1]; 2 mg mitochondrial protein, read-out: concentration required for 50% inhibition): ~15 µM

CCN(CC)C(=O)SC[C@H](NC(=O)CC[C@H](N)C(=O)O)C(=O)NCC(=O)O [DETC-GS, S-(N,N-diethylcarbamoyl)glutathione]
inhibition at 30 µmol/kg [2]: 30.1 ± 1%
effect on glutamate binding to synaptic membrane preparations [3]: reversibly blocked
effect on aldehyde dehydrogenase in vitro [4]: no effect
stability of the carbamoylated glutathione [5]: relatively stable
irreversible brain glutamate receptor blockage [6]: 26.9±4.3%

CCN(CC)C(=O)SC [DETC-Me, S-Methyl-N,N-Diethylthiolcarbamate]
dose required to inhibit 50% of the low Km ALDH [7]: 6.5 mg/kg
inhibition of low Km ALDH ([1]; 200 μM): 8%

CN[C@H](CC(=O)O)C(=O)O [NMDA, N-methyl-D-asparate, reference compound]
reversible blockage of glutamate binding ([3]; 0.5 mM, in the presence of glycine (0.1 mM)): 32±2%
effect on glutamate binding to synaptic membrane preparations [3]: does not block glutamate binding

oxidized glutathione [GSSG, reference compound]
effect on glutamate binding to synaptic membrane preparations [3]: reversibly blocked
